Where “and” joins values, the source holds several entries; their conditions need not be identical. Equal values may be shown once. Read-outs that look alike come from different tables or passages of the source.
What was measured:
[1] = tested on: P. falciparum Dd2-2D4; test: P. falciparum asexual blood stage (ABS) growth assay, SYBR Green, 72 h, wild-type parasites; format: cell-based, Plasmodium falciparum; settings: Plasmodium falciparum, DD2; SI Fig 16b; values on -log scale; read-out: ABS - Dd2-2D4 (converted)
[2] = target: T1, PfcProRS (Plasmodium falciparum, UniProt Q8I5R7); format: binding; settings: for dose-response signal (normalized), SI Fig 8: single replicates
T1 construct: made in house; host or cells: E. coli SoluBL-21

[3] = target: HsProRS (Homo sapiens, UniProt P07814); test: TR-FRET ligand displacement assay with tracer MAT379 (CoraFluor-1-Halo and anti-His6 antibody formats); format: binding; design: made in house; host or cells: E. coli SoluBL-21; settings: for TR-FRET dose-response, normalized signal (SI Fig 11): individual replicates
Chain of HsProRS (P07814 996-1512): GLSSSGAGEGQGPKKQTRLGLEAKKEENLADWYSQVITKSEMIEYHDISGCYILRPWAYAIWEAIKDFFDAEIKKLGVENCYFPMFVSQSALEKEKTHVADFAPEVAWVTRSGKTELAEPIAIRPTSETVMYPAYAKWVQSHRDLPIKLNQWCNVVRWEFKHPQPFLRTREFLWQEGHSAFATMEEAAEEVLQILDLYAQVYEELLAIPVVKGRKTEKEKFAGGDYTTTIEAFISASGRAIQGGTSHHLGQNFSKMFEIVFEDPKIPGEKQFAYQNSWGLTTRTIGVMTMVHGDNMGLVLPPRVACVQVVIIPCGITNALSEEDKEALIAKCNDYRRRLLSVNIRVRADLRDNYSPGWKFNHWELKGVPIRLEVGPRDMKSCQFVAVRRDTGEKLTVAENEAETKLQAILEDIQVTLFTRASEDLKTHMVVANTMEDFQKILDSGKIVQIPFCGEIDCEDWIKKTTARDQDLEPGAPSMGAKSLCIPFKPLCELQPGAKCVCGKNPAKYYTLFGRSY

T1 sequence (Q8I5R7 249-746): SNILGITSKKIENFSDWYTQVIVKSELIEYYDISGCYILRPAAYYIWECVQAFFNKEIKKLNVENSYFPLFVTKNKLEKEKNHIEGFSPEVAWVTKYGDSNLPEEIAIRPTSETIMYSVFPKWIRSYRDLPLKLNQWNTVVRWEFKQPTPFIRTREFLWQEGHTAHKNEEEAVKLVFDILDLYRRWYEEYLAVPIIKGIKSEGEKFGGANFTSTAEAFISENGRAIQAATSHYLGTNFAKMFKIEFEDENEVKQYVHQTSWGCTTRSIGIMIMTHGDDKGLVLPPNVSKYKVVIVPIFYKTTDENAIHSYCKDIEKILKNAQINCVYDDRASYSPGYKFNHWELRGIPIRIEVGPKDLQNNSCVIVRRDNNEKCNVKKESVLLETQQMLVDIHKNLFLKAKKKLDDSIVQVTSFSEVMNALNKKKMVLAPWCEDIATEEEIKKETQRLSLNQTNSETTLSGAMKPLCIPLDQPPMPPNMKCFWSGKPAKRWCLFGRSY

Q: With `CC(C)(C)OC(=O)NCC1CCN(C(=O)Nc2nccnc2C(=O)NC2Cc3ccccc3C2)CC1` [compound 9] as the compound, how does the EC50 [1] read?
A: Its EC50 is 6.58 µM.

Q: And the “dose-response signal (normalized), SI Fig 8” value ([2]; Log[inhibitor] (M) -5.000)?
A: The value was 8.25E-02 and 7.54E-02 and 9.29E-02.

Q: And the “dose-response signal (normalized), SI Fig 8” value ([2]; Log[inhibitor] (M) -5.301)?
A: The value was 2.45E-01 and 1.32E-01 and 2.09E-01.

Q: And the “dose-response signal (normalized), SI Fig 8” value ([2]; Log[inhibitor] (M) -5.601)?
A: Its value is 4.06E-01 and 4.09E-01 and 3.31E-01.

Q: What about the “dose-response signal (normalized), SI Fig 8” value ([2]; Log[inhibitor] (M) -5.904) of the same compound?
A: The value was 5.21E-01 and 6.14E-01 and 5.87E-01.

Q: What about the “dose-response signal (normalized), SI Fig 8” value ([2]; Log[inhibitor] (M) -6.208) of the same compound?
A: Its value is 7.48E-01 and 8.25E-01 and 7.95E-01.

Q: What about the “dose-response signal (normalized), SI Fig 8” value ([2]; Log[inhibitor] (M) -6.509) of the same compound?
A: The value was 8.42E-01 and 8.68E-01 and 7.28E-01.

Q: What about the “dose-response signal (normalized), SI Fig 8” value ([2]; Log[inhibitor] (M) -6.796) of the same compound?
A: Its value is 9.11E-01 and 1.04E+00 and 1.02E+00.

Q: And the “dose-response signal (normalized), SI Fig 8” value ([2]; Log[inhibitor] (M) -7.108)?
A: Its value is 9.58E-01 and 9.39E-01 and 1.04E+00.

Q: What about the “dose-response signal (normalized), SI Fig 8” value ([2]; Log[inhibitor] (M) -7.409) of the same compound?
A: Its value is 9.93E-01 and 1.06E+00 (2×).

Q: And the “dose-response signal (normalized), SI Fig 8” value ([2]; Log[inhibitor] (M) -7.710)?
A: Its value is 1.14E+00 and 1.04E+00 and 9.88E-01.

Q: What about the “dose-response signal (normalized), SI Fig 8” value ([2]; Log[inhibitor] (M) -8.000) of the same compound?
A: The value was 9.88E-01 and 1.04E+00 and 1.02E+00.

Q: And the “dose-response signal (normalized), SI Fig 8” value ([2]; Log[inhibitor] (M) -8.301)?
A: The value was 9.59E-01 and 9.72E-01 and 9.39E-01.

Q: And the “dose-response signal (normalized), SI Fig 8” value ([2]; Log[inhibitor] (M) -8.602)?
A: The value was 9.15E-01 and 9.90E-01 and 9.70E-01.

Q: And the “dose-response signal (normalized), SI Fig 8” value ([2]; Log[inhibitor] (M) -9.000)?
A: Its value is 9.95E-01 and 1.01E+00 and 9.84E-01.

Q: What about the “dose-response signal (normalized), SI Fig 8” value ([2]; Log[inhibitor] (M) -9.301) of the same compound?
A: Its value is 1.06E+00 and 9.86E-01 and 9.57E-01.

Q: What about the “PfcProRS -- best Kd” value ([2]; SI Fig 16a, values on -log scale) of the same compound?
A: The value was 6.452.

Q: And the “HsProRS % signal at 10 μM, + 100 μM proline” value ([3]; + 100 μM proline, 10 μM)?
A: Its value is 51.7%.

Q: What about the Kd ([3]; HsProRS (KD [nM]) mean, no added proline/ATP (-)) of the same compound?
A: Its Kd is 2510 nM.

Q: What about the “normalized TR-FRET ligand displacement signal, dose-response replicates (SI Fig 6)” value ([3]; Log[inhibitor] (M) -5.000) of the same compound?
A: Its value is 3.85E-02 and 1.39E-01 and 8.67E-02.

Q: And the “TR-FRET dose-response, normalized signal (SI Fig 11)” value ([3]; Log[inhibitor] (M) -5.000)?
A: The value was 2.52E-01 and 2.44E-01 and 2.56E-01.

Q: What about the “normalized TR-FRET ligand displacement signal, dose-response replicates (SI Fig 6)” value ([3]; Log[inhibitor] (M) -5.301) of the same compound?
A: Its value is 2.62E-01 and 9.25E-02 and 2.11E-01.

Q: And the “TR-FRET dose-response, normalized signal (SI Fig 11)” value ([3]; Log[inhibitor] (M) -5.301)?
A: Its value is 3.68E-01 and 3.83E-01 and 3.86E-01.

Q: What about the “normalized TR-FRET ligand displacement signal, dose-response replicates (SI Fig 6)” value ([3]; Log[inhibitor] (M) -5.601) of the same compound?
A: Its value is 2.47E-01 and 2.95E-01 and 3.23E-01.

Q: And the “TR-FRET dose-response, normalized signal (SI Fig 11)” value ([3]; Log[inhibitor] (M) -5.601)?
A: The value was 5.41E-01 and 5.42E-01 and 6.20E-01.

Q: And the “normalized TR-FRET ligand displacement signal, dose-response replicates (SI Fig 6)” value ([3]; Log[inhibitor] (M) -5.904)?
A: The value was 5.08E-01 and 5.80E-01 and 5.13E-01.

Q: What about the “TR-FRET dose-response, normalized signal (SI Fig 11)” value ([3]; Log[inhibitor] (M) -5.904) of the same compound?
A: Its value is 6.85E-01 and 6.21E-01 and 6.49E-01.

Q: What about the “normalized TR-FRET ligand displacement signal, dose-response replicates (SI Fig 6)” value ([3]; Log[inhibitor] (M) -6.208) of the same compound?
A: The value was 7.02E-01 and 7.67E-01 and 6.77E-01.

Q: What about the “TR-FRET dose-response, normalized signal (SI Fig 11)” value ([3]; Log[inhibitor] (M) -6.208) of the same compound?
A: The value was 7.39E-01 and 7.74E-01 and 7.75E-01.

Q: What about the “normalized TR-FRET ligand displacement signal, dose-response replicates (SI Fig 6)” value ([3]; Log[inhibitor] (M) -6.509) of the same compound?
A: Its value is 8.58E-01 and 7.92E-01 and 7.62E-01.

Q: And the “TR-FRET dose-response, normalized signal (SI Fig 11)” value ([3]; Log[inhibitor] (M) -6.509)?
A: The value was 8.32E-01 and 8.29E-01 and 7.90E-01.

Q: What about the “normalized TR-FRET ligand displacement signal, dose-response replicates (SI Fig 6)” value ([3]; Log[inhibitor] (M) -6.796) of the same compound?
A: Its value is 9.92E-01 and 1.07E+00 and 1.01E+00.

Q: And the “TR-FRET dose-response, normalized signal (SI Fig 11)” value ([3]; Log[inhibitor] (M) -6.796)?
A: Its value is 8.79E-01 and 8.03E-01 and 8.17E-01.

Q: What about the “normalized TR-FRET ligand displacement signal, dose-response replicates (SI Fig 6)” value ([3]; Log[inhibitor] (M) -7.108) of the same compound?
A: Its value is 8.83E-01 and 1.03E+00 and 1.07E+00.

Q: What about the “TR-FRET dose-response, normalized signal (SI Fig 11)” value ([3]; Log[inhibitor] (M) -7.108) of the same compound?
A: The value was 8.15E-01 and 8.66E-01 and 8.33E-01.

Q: What about the “normalized TR-FRET ligand displacement signal, dose-response replicates (SI Fig 6)” value ([3]; Log[inhibitor] (M) -7.409) of the same compound?
A: The value was 9.70E-01 and 9.46E-01 and 9.42E-01.

Q: And the “TR-FRET dose-response, normalized signal (SI Fig 11)” value ([3]; Log[inhibitor] (M) -7.409)?
A: The value was 8.81E-01 and 9.27E-01 and 8.52E-01.

Q: And the “normalized TR-FRET ligand displacement signal, dose-response replicates (SI Fig 6)” value ([3]; Log[inhibitor] (M) -7.710)?
A: The value was 9.63E-01 and 9.72E-01 and 1.02E+00.

Q: And the “TR-FRET dose-response, normalized signal (SI Fig 11)” value ([3]; Log[inhibitor] (M) -7.710)?
A: Its value is 8.59E-01 and 8.71E-01 and 8.69E-01.

Q: And the “normalized TR-FRET ligand displacement signal, dose-response replicates (SI Fig 6)” value ([3]; Log[inhibitor] (M) -8.000)?
A: Its value is 9.31E-01 and 9.57E-01 and 9.75E-01.

Q: And the “TR-FRET dose-response, normalized signal (SI Fig 11)” value ([3]; Log[inhibitor] (M) -8.000)?
A: Its value is 9.54E-01 and 9.12E-01 and 8.65E-01.

Q: What about the “normalized TR-FRET ligand displacement signal, dose-response replicates (SI Fig 6)” value ([3]; Log[inhibitor] (M) -8.301) of the same compound?
A: The value was 9.41E-01 and 8.96E-01 and 8.89E-01.

Q: What about the “TR-FRET dose-response, normalized signal (SI Fig 11)” value ([3]; Log[inhibitor] (M) -8.301) of the same compound?
A: Its value is 9.04E-01 and 9.25E-01 and 8.91E-01.

Q: And the “normalized TR-FRET ligand displacement signal, dose-response replicates (SI Fig 6)” value ([3]; Log[inhibitor] (M) -8.602)?
A: Its value is 9.58E-01 and 9.45E-01 and 9.24E-01.

Q: What about the “TR-FRET dose-response, normalized signal (SI Fig 11)” value ([3]; Log[inhibitor] (M) -8.602) of the same compound?
A: The value was 9.14E-01 and 8.78E-01 and 9.05E-01.

Q: What about the “normalized TR-FRET ligand displacement signal, dose-response replicates (SI Fig 6)” value ([3]; Log[inhibitor] (M) -9.000) of the same compound?
A: Its value is 1.05E+00 and 8.77E-01 and 8.55E-01.

Q: What about the “TR-FRET dose-response, normalized signal (SI Fig 11)” value ([3]; Log[inhibitor] (M) -9.000) of the same compound?
A: The value was 8.65E-01 and 8.66E-01 and 9.64E-01.

Q: What about the “normalized TR-FRET ligand displacement signal, dose-response replicates (SI Fig 6)” value ([3]; Log[inhibitor] (M) -9.301) of the same compound?
A: The value was 8.65E-01 and 9.01E-01 and 8.87E-01.

Q: What about the “TR-FRET dose-response, normalized signal (SI Fig 11)” value ([3]; Log[inhibitor] (M) -9.301) of the same compound?
A: Its value is 9.03E-01 and 9.18E-01 and 8.96E-01.

Source: article PMC9403976, “Elucidating the path to Plasmodium prolyl-tRNA synthetase inhibitors that overcome halofuginone resistance” (Nature Communications, 2022)
